Legend:
Assay type in all cases: functional
Rattus norvegicus = species: Rattus norvegicus; test: Maximum velocity was determined for rat liver DT diaphorase substrate activity
Nucleic Acid [1] = test: Compound tested for its selectivity for incorporation into poly(dA) DNA base pairs
Nucleic Acid [2] = test: Compound tested for its selectivity for incorporation into poly(dG) DNA base pairs
Nucleic Acid [3] = test: Compound tested for its selectivity for incorporation into poly(dA-dT) DNA base pairs

| SMILES | Vmax (Rattus norvegicus) [nM/s] | Selectivity (Nucleic Acid [1]) [%] | Selectivity (Nucleic Acid [2]) [%] | Selectivity (Nucleic Acid [3]) [%] |
| --- | --- | --- | --- | --- |
| CC(=O)NC1=C(C)C(=O)c2c(nc3n2CC[C@H]3OC(C)=O)C1=O | 14.6 | – | – | – |
| CC(=O)N[C@H]1CCn2c1nc1c2C(=O)C(C)=C(N2CC2)C1=O | 2.2 | 32.7 | 12.1 | 38 |
| COCC(=O)O[C@@H]1CCn2c1nc1c2C(=O)C(C)=C(NC(C)=O)C1=O | 16.7 | – | – | – |
| CC(=O)NC1=C(C)C(=O)c2c(nc3n2CCC3OC(=O)c2ccccc2)C1=O (racemic) | 27.9 | – | – | – |
| CC(=O)NC1=C(C)C(=O)c2c(nc3n2CCC3OC(C)=O)C1=O (racemic) | 38.6 | – | – | – |
| CC(=O)NC1CCn2c1nc1c2C(=O)C(C)=C(N2CC2)C1=O (racemic) | 8.3 | 41.5 | 8.2 | 28 |
| CC(=O)OC1CCn2c1nc1c2C(=O)C(C)=C(N2CC2)C1=O (racemic) | 66.5 | – | – | – |
| CCCCC1=C(N2CC2)C(=O)c2nc3n(c2C1=O)CCC3OC(C)=O (racemic) | 8.5 | – | – | – |
| CC(=O)O[C@H]1CCn2c1nc1c2C(=O)C(C)=C(N2CC2)C1=O (stereo in doubt; (+)) | 83.4 | 5.9 | – | – |
| CC(=O)O[C@H]1CCn2c1nc1c2C(=O)C(C)=C(N2CC2)C1=O (stereo in doubt; (-)) | 62.6 | 8.5 | – | – |

Continued, in another order:

| Vmax (Rattus norvegicus) [nM/s] | SMILES | Selectivity (Nucleic Acid [1]) [%] | Selectivity (Nucleic Acid [2]) [%] | Selectivity (Nucleic Acid [3]) [%] |
| --- | --- | --- | --- | --- |
| 20.4 | CC(=O)NC1=C(C)C(=O)c2c(nc3n2CC[C@@H]3OC(C)=O)C1=O | – | – | – |
| 18.1 | CCCCC1=C(NC(C)=O)C(=O)c2nc3n(c2C1=O)CCC3 | – | – | – |
| 15.4 | CCCCC1=C(NC(C)=O)C(=O)c2nc3n(c2C1=O)CCC3OC(C)=O (centres undefined) | – | – | – |
| 28.2 | COCC(=O)O[C@H]1CCn2c1nc1c2C(=O)C(C)=C(NC(C)=O)C1=O | – | – | – |
| 42.3 | CCCC(=O)OC1CCn2c1nc1c2C(=O)C(C)=C(NC(C)=O)C1=O (racemic) | – | – | – |
| 9.8 | COCC(=O)OC1CCn2c1nc1c2C(=O)C(C)=C(NC(C)=O)C1=O (racemic) | – | – | – |

— ChEMBL document CHEMBL1130000, “Studies of pyrrolo[1,2-alpha]benzimidazolequinone DT-diaphorase substrate activity, topoisomerase II inhibition activity, and DNA reductive alkylation” (J Med Chem, 1997)
